Measured values from patent US9617221B2, “Kinase modulators for the treatment of cancer” (Synovo GmbH, priority 2010, dated 2017).

Columns and labels:
Assay type in all cases: cell-based, mice
[1] = tested on: IL-10; assay: IL-10 production by LPS-stimulated murine peritoneal macrophage (ELISA); details: for IL-10 by ELISA, % of solvent treated control: murine peritoneal macrophage; for IL-10 (LPS, Macrophages), amount of cytokine: 10 μM, 72 h
Protocol: (§1) Peritoneal macrophage or splenocytes (lymphocytes and macrophage) were harvested from donor mice using standard techniques. Cells were placed in culture and stimulated with either LPS (10 μg/mL) or concanavalin A 5 μg/mL (Sigma Chemical Co., St Louis, Mo.) in RPMI-1640 medium supplemented with antibiotics, […] 2-mercaptoethanol, 10 mm HEPES buffer and 10% fetal calf serum (FCS) (see Holan et al., 1985) to stimulate macrophage and T-cells respectively. Compounds were added from DMSO stock solutions to a final concentration of 50 μM or less with DMSO not exceeding 1% of total volume. After 72 h, cell supernatant was recovered and the cytokine levels were estimated by ELISA. The effect of compounds on cytokine production was recorded as follows: […]

[2] = tested on: NO; assay: NO production by LPS-stimulated macrophages; details: 10 μM, 72 h
[3] = tested on: IL-2; assay: IL-2 production by ConA-stimulated T cells; details: 10 μM, 72 h
Protocol: as §1

[4] = tested on: IL-6; assay: IL-6 production by LPS-stimulated macrophages; details: 10 μM, 72 h
Protocol: as §1

[5] = tested on: T cells; assay: Proliferation of Con A-stimulated T cells; details: 10 μM
Protocol: as §1

[6] = tested on: IL-10; assay: IL-10 production by ConA-stimulated T cells; details: 10 μM, 72 h
Protocol: as §1

[7] = tested on: IFN-g; assay: IFN-g production by ConA-stimulated T cells; details: 10 μM, 72 h
Protocol: as §1

[8] = tested on: B cells; assay: Proliferation of LPS-stimulated B cells; details: 10 μM

Row | Structure (SMILES) | IL-10 by ELISA, % of solvent treated control ([1]; 1.25 μM inhibitor in medium) | IL-10 by ELISA, % of solvent treated control ([1]; 5 μM inhibitor in medium) | IL-10 by ELISA, % of solvent treated control ([1]; 20 μM inhibitor in medium) | NO (LPS, Macrophages), % of control treated with solvent alone [2] | IL-2 (ConA, T cells), amount of cytokine [3] | IL-6 (LPS, Macrophages), amount of cytokine [4] | Proliferation (Con A, T cells) [5] | IL-10 by ELISA, % of solvent treated control ([1]; 2 μM inhibitor in medium) | IL-10 by ELISA, % of solvent treated control ([1]; 10 μM inhibitor in medium) | IL-10 (LPS, Macrophages), amount of cytokine [1] | IL-10 by ELISA, % of solvent treated control ([1]; 50 μM inhibitor in medium) | IL-10 (ConA, T cells), amount of cytokine [6] | IFN-g (ConA, T cells), amount of cytokine [7] | Proliferation (LPS, B cells) [8]
1 | CCOC(=O)CCCN(C)C1CC(C)OC(OC2C(C)C(OC3CC(C)(OC)C(O)C(C)O3)C(C)C(=O)OC(CC)C(C)(O)C(O)C(C)N(C)CC(C)CC2(C)O)C1O (stereo not shown) [Compound 27, 4-({2-[2-Ethyl-3,4,10-trihydroxy-13-(5-hydroxy-4-methoxy-4,6-dimethyl-tetrahydro-pyran-2-yloxy)-3,5,6,8,10,12,14-heptamethyl-15-oxo-1-oxa-6-aza-cyclopentadec-11-yloxy]-3-hydroxy-6-methyl-tetrahydro-pyran-4-yl}-methyl-amino)-butyric acid ethyl ester] | 132 % of solvent treated control | 106 % of solvent treated control | 17 % of solvent treated control | – | – | – | – | – | – | – | – | – | – | –
2 | CCC1OC(=O)C(C)C(OC2CC(C)(OC)C(O)C(C)O2)C(C)C(OC2OC(C)CC(N(C)CCCC(=O)OCC3CO3)C2O)C(C)(O)CC(C)CN(C)C(C)C(O)C1(C)O (stereo not shown) [Compound 29] | 110 % of solvent treated control | 114 % of solvent treated control | 106 % of solvent treated control | – | – | – | – | – | – | – | – | – | – | –
3 | CCC1OC(=O)C(C)C(OC2CC(C)(OC)C(O)C(C)O2)C(C)C(OC2OC(C)CC(N(C)CCCCCC(=O)OCCO)C2O)C(C)(O)CC(C)CN(C)C(C)C(O)C1(C)O (stereo not shown) [Compound 36] | – | – | – | 100 % of control treated with solvent alone | 96 % of control treated with solvent alone | 91 % of control treated with solvent alone | 199 % of control treated with solvent alone | 88 % of solvent treated control | 116 % of solvent treated control | 116 % of control treated with solvent alone | 0 % of solvent treated control | 79 % of control treated with solvent alone | 99 % of control treated with solvent alone | 3 % of control treated with solvent alone
4 | CC[C@H]1OC(=O)[C@H](C)[C@@H](O[C@H]2C[C@@](C)(OC)[C@@H](O)[C@H](C)O2)[C@H](C)[C@@H](O[C@@H]2O[C@H](C)C[C@H](N(C)CCCC(=O)OCC(O)CSc3nc(-c4ccc(F)cc4)c(-c4ccnc(NC(C)C(C)C)c4)[nH]3)[C@H]2O)[C@](C)(O)C[C@@H](C)CN(C)[C@H](C)[C@@H](O)[C@]1(C)O (stereo partly shown) [Compound 43a] | – | – | – | 1 % of control treated with solvent alone | 0 % of control treated with solvent alone | 15 % of control treated with solvent alone | 0 % of control treated with solvent alone | 16 % of solvent treated control | 2 % of solvent treated control | 2 % of control treated with solvent alone | 5 % of solvent treated control | 0 % of control treated with solvent alone | 3 % of control treated with solvent alone | 2 % of control treated with solvent alone
